The term IC50 denotes the point on the concentration scale where inhibition reaches its midpoint.

For the experiment, the target named is T1, interaction between VCAM-1 and VLA-4 (Homo sapiens, UniProt P05556+P13612).
T1 construct: supplied in their natural form as surface molecules on human U937 cells; host or cells: U937 cells carry endogenous VLA-4; The partner hVCAM-1(1-3)-IgG was made in house in transfected COS cells (ATCC CRL1651) and used as culture supernatant
T1 sequence (P13612 34-1032): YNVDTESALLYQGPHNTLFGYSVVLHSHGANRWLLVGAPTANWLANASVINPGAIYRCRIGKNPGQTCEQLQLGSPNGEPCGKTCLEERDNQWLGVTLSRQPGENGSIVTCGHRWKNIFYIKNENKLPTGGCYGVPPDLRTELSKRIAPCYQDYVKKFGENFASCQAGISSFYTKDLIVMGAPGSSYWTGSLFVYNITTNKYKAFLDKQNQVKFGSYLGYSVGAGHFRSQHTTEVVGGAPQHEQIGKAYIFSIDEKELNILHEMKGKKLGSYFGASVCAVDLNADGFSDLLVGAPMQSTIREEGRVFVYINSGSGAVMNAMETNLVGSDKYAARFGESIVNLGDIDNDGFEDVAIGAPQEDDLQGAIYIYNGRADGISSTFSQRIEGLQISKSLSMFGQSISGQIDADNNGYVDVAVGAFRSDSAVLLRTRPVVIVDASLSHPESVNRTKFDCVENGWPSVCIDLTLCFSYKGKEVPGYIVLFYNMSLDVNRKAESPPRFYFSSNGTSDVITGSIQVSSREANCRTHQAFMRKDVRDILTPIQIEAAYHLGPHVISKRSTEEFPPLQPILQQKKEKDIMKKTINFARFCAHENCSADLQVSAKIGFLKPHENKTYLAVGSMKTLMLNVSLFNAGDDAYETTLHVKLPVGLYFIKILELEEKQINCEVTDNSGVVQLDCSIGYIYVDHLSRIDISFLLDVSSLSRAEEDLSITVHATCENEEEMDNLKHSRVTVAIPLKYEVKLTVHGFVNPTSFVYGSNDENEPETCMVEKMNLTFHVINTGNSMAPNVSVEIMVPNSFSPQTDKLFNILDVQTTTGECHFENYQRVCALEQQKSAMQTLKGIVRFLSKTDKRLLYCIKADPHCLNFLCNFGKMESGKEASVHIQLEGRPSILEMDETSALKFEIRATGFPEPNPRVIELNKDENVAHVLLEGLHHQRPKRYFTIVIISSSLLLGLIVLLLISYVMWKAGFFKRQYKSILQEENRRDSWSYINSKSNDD
T1 sequence (P05556 21-798): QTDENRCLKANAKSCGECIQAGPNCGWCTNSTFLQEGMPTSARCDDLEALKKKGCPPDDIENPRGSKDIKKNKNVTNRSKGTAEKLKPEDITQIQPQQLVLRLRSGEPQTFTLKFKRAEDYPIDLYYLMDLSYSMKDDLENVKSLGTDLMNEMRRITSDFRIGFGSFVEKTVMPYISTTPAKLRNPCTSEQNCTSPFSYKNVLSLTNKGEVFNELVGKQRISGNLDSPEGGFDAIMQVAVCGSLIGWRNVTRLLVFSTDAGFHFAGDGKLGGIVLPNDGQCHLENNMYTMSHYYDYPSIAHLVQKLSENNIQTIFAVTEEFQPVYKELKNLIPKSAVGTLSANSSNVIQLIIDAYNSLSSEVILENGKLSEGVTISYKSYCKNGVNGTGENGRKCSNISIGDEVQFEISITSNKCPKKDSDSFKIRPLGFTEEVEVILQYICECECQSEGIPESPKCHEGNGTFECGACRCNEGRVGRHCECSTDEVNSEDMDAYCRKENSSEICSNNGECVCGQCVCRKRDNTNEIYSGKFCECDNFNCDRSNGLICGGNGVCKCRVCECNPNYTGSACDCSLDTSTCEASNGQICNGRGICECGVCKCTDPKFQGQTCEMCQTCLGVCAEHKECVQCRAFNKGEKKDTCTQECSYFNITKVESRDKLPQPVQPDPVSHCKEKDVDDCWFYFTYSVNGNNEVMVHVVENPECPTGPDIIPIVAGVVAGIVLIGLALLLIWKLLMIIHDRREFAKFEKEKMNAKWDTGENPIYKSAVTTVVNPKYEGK
Kind of experiment: U937/VCAM-1 cell adhesion test (adhesion of U937 cells to hVCAM-1(1-3)-IgG). Format: cell-based. The following applies: concentration leading to 50% inhibition of adhesion of human U937 cells (ATCC CRL 1593) to hVCAM-1(1-3)-IgG. From the text:
The test method used for the activity of the compounds of the formula I on the interaction between VCAM-1 and VLA-4 is the assay described below which is specific for this interaction. The cellular binding components, i.e., the VLA-4 integrins, are supplied in their natural form as surface molecules on human U937 cells (ATCC CRL 1593). which belong to the leucocytes group. The specific binding components used are genetically engineered recombinant soluble fusion proteins, consisting of the extracytoplasmatic domain of human VCAM-1 and the constant region of a human immunoglobulin of the subclass IgG1.
Assay for the Measurement of the Adhesion of U937 Cells (ATCC CRL 1593) to hVCAM-1(1-3)-IgG
1. Preparation of Human VCAM-1 (1-3)-IgG and Human CD4-IgG
A genetic construct for the expression of the extracellular domain of human VCAM-1, associated with the genetic sequence of the heavy chain of human immunoglobulin IgG1 (hinge, CH2 and CH3 regions), from Dr. Brian Seed, Massachusetts General Hospital. Boston, USA was employed (cf. Damle and Aruffo, Proc. Natl. Acad. Sci. USA 1991, 88, 6403-6407). The soluble fusion protein hVCAM-1(1-3)-IgG contained the three amino-terminal extracellular immunoglobulin-like domains of human VCAM-1 (Damle and Aruffo, Proc. Natl. Acad. Sci. USA 1991, 88, 6403-6407). CD4-IgG (Zettimeissl et al., DNA and Cell Biology 1990, 9, 347) served as a fusion protein for negative controls. The recombinant proteins were expressed as soluble proteins after DEAE/dextran-mediated DNA transfection in COS cells (ATCC CRL1651) according to standard procedures (Ausubel et al., Current Protocols in Molecular Biology, John Wiley & Sons, Inc., 1994).
2. Assay for the Measurement of the Adhesion of U937 Cells to hVCAM-1 (1-3)-IgG
2.1 96-well microtiter test plates (Nunc Maxisorb) were incubated at room temperature for 1 hour with 100 μl/well of a goat-anti-human IgG antibody solution (10 μg/ml in 50 mM tris, pH 9.5). After removal of the antibody solution, washing was carried out once with PBS.
2.2 150 μl/well of a blocking buffer (1% BSA in PBS) were incubated on the plates at room temperature for 0.5 hour. After removal of the blocking buffer, washing was carried out once with PBS.
2.3 100 μl per well of a cell culture supernatant of transfected COS cells were incubated on the plates at room temperature for 1.5 hours. The COS cells were transfected with a plasmid which codes for the three N-terminal immunoglobulin-like domains of VCAM-1, coupled to the Fc part of human IgG1 (hVCAM-1 (1-3)-IgG). The content of hVCAM-1 (1-3)-IgG was about 0.5-1 μg/ml. After removal of the culture supernatant, washing was carried out once with PBS.
2.4 The plates were incubated at room temperature for 20 minutes with 100 μl/well of Fc receptor blocking buffer (1 mg/ml of γ-globulin, 100 mM NaCl, 100 μM MgCl2, 100 μM MnCl2, 100 μM CaCl2, 1 mg/ml of BSA in 50 mM HEPES, pH 7.5). After removal of the Fc receptor blocking buffer, washing was carried out once with PBS.
2.5 20 μl of binding buffer (100 mM NaCl, 100 μM MgCl2, 100 μM MnCl2, 100 μM CaCl2, 1 mg/ml of BSA in 50 mM HEPES, pH 7.5) were initially introduced, and the substances to be tested were added in 10 μl of binding buffer and incubated for 20 minutes. The controls used were antibodies against VCAM-1 (BBT, No. BBA6) and against VLA-4 (immunotech, No. 0764).
2.6 U937 cells were incubated in Fc receptor blocking buffer for 20 minutes and then added by pipette in a concentration of 1×10^6/ml and in an amount of 100 μl per well ([…]).
2.7 The plates were slowly immersed at an angle of 45° in stop buffer (100 mM NaCl, 100 μM MgCl2, 100 μM MnCl2, 100 μM CaCl2 in 25 mM tris, pH 7.5) and shaken off. The process was repeated.
2.8 50 μl/well of a dye solution (16.7 μg/ml of Hoechst Dye 33258, 4% formaldehyde, 0.5% triton X-100 in PBS) were then incubated on the plates for 15 minutes. […]
Molecule `Cc1ccccc1NC(=O)Nc1ccc(CN2C(=O)N(CC(=O)N(C)[C@@H](CC(=O)O)C(=O)NC3C4CC5CC(C4)CC3C5)C(=O)C2(C)C)cc1` (stereo partly drawn) [Example 22, (2-(4,4-Dimethyl-3-(4-(3-(2-methylphenyl)ureido)benzyl)-2,5-dioxoimidazolidin-1-yl)-acetyl)-N-methyl-L-(2-adamantyl)aspartamide] showed a concentration for half-maximal inhibition (IC50) of 4 nM.

For `CN(C(=O)CN1C(=O)N(Cc2ccc(NC(=O)Nc3ccccc3)cc2)C(C)(C)C1=O)[C@@H](CC(=O)O)C(=O)NC1C2CC3CC(C2)CC1C3` (stereo partly drawn) [Example 23], the IC50 stood at 16 nM.

As to `CC1(C)C(=O)N(CC(=O)N[C@@H](CC(=O)O)C(=O)NC2C3CC4CC(C3)CC2C4)C(=O)N1Cc1ccc(NC(=O)Nc2ccccc2)cc1` (stereo partly drawn) [Example 24, (2-(4,4-Dimethyl-3-(4-(3-phenylureido)benzyl)-2,5-dioxoimidazolidin-1-yl)-acetyl)-L-(2-adamantyl)aspartamide], the IC50 was found to be 6 nM.

Molecule `CC(C)C[C@@H](C(=O)N[C@@H](CC(=O)O)C(=O)NC1C2CC3CC(C2)CC1C3)N1C(=O)N(Cc2ccc(NC(=O)Nc3ccccc3)cc2)C(C)(C)C1=O` (stereo partly drawn) [Example 25] had an IC50 of 6 nM.

Turning to `Cc1ccccc1NC(=O)Nc1ccc(CN2CC(=O)N(CC(=O)N[C@H](C)CC(=O)O)C2=O)cc1` [Example 26, (R)-3-(2-(3-(4-(3-(2-Methylphenyl)ureido)benzyl)-2,5-dioxoimidazolidin-1-yl)-acetylamino)-3-methylpropionic Acid], the IC50 came to 2900 nM.

As for `Cc1ccccc1NC(=O)Nc1ccc(CN2C(=O)N([C@@H](CC(C)C)C(=O)N[C@@H](CC(=O)O)C(=O)O)C(=O)C2(C)C)cc1` [Example 27, ((S)-2-(4,4Dimethyl-3-(4-(3-(2-methylphenyl)ureido)benzyl)-2,5-dioxoimidazolidin-1-yl)-2-(2-methylpropyl)acetyl)-L-aspartic Acid], the IC50 is 27 nM.

Consider `Cc1ccccc1NC(=O)Nc1ccc(CN2C(=O)N(CC(=O)N(C)[C@@H](CC(=O)O)C(=O)O)C(=O)C2(C)C)cc1` [Example 28, (2-(4,4-Dimethyl-3-(4-(3-(2-methylphenyl)ureido)benzyl)-2,5-dioxoimidazolidin-1-yl)-acetyl)-N-methyl-L-aspartic Acid], for which the IC50 is 110 nM. For `Cc1ccccc1NC(=O)Nc1ccc(CN2CC(=O)N(CC(=O)N[C@@H](CC(=O)O)c3ccccc3)C2=O)cc1` [Example 29, (S)3-(2-(3-(4-(3-(2-Methylphenyl)ureido)benzyl)-2,5-dioxoimidazolidin-1-yl)-acetylamino)-3-phenylpropionic Acid] the value was 890 nM; for `C[C@H](CC(=O)O)NC(=O)CN1C(=O)CN(Cc2ccc(NC(=O)Nc3ccccc3Cl)cc2)C1=O` [Example 30, (R)-3-(2-(3-(4-(3-(2-Chlorophenyl)ureido)benzyl)-2,5-dioxoimidazolidin-1-yl)-acetylamino)-3-methylpropionic Acid], 580 nM; for `Cc1cccc(NC(=O)Nc2ccc(CN3C(=O)N(CC(=O)NC(C)CC(=O)O)C(=O)C3(C)C)cc2)c1C` (stereo not drawn) [Example 34], 490 nM. Regarding `COC(=O)c1ccccc1NC(=O)Nc1ccc(CN2C(=O)N(CC(=O)N[C@H](C)CC(=O)O)C(=O)C2(C)C)cc1` [Example 38], the IC50 amounted to 400 nM. Under `CCc1cccc(C)c1NC(=O)Nc1ccc(CN2C(=O)N(CC(=O)N[C@@H](CC(=O)O)c3ccccc3)C(=O)C2(C)C)cc1` [Example 41] stands 1470 nM; under `Cc1cccc(C)c1NC(=O)Nc1ccc(CN2C(=O)N(CC(=O)N[C@@H](CC(=O)O)c3ccccc3)C(=O)C2(C)C)cc1` [Example 42], 470 nM.

Molecule `Cc1ccc(NC(=O)Nc2ccc(CN3C(=O)N(CC(=O)N[C@@H](CC(=O)O)c4ccccc4)C(=O)C3(C)C)cc2)c(C)c1` [Example 43] showed an IC50 of 740 nM. With `Cc1ccccc1NC(=O)Nc1ccc(CN2C(=O)N([C@@H](CC(C)C)C(=O)N[C@@H](CC(=O)O)C(=O)N[C@H](C(=O)O)c3ccccc3)C(=O)C2(C)C)cc1` [Example 47, ((S)-2-(4,4-Dimethyl-3-(4-(3-(2-methylphenyl)ureido)benzyl)-2,5-dioxoimidazolidin-1-yl)-2-(2-methylpropyl)acetyl)-L-aspartyl-L-phenylglycine], the IC50 was 0.85 nM. For `CC(C)C[C@@H](C(=O)N[C@@H](CC(=O)O)C(=O)N[C@H](C(=O)O)c1ccccc1)N1C(=O)N(Cc2ccc(NC(=O)Nc3ccc(F)cc3)cc2)C(C)(C)C1=O` [Example 49] the value was 13 nM; for `CC(C)C[C@@H](C(=O)N[C@@H](CC(=O)O)C(=O)N[C@H](C(=O)O)c1ccccc1)N1C(=O)N(Cc2ccc(NC(=O)NCc3ccccc3)cc2)C(C)(C)C1=O` [Example 58], 450 nM. Molecule `COc1ccccc1NC(=O)Nc1ccc(CN2C(=O)N([C@@H](CC(C)C)C(=O)N[C@@H](CC(=O)O)C(=O)N[C@H](C(=O)O)c3ccccc3)C(=O)C2(C)C)cc1` [Example 61] registered an IC50 of 24.5 nM.

In the case of `CC(C)C[C@@H](C(=O)N[C@@H](CC(=O)O)C(=O)N[C@H](C(=O)O)c1ccccc1)N1C(=O)N(Cc2ccc(NC(=O)Nc3ccccc3Cl)cc2)C(C)(C)C1=O` [Example 62], the IC50 amounted to 5 nM. `CC(C)C[C@@H](C(=O)N[C@@H](CC(=O)O)C(=O)N[C@H](C(=O)O)c1ccccc1)N1C(=O)N(Cc2ccc(NC(=O)Nc3ccccc3F)cc2)C(C)(C)C1=O` [Example 67] registered an IC50 of 2.3 nM. Under `CC(C)C[C@@H](C(=O)N[C@@H](CC(=O)O)C(=O)N[C@H](C(=O)O)c1ccccc1)N1C(=O)N(Cc2ccc(NC(=O)Nc3ccccc3C(F)(F)F)cc2)C(C)(C)C1=O` [Example 68] stands 300 nM; under `Cc1ccccc1NC(=O)Nc1ccc(CN2C(=O)N([C@@H](C)C(=O)N[C@H](C)CC(=O)O)C(=O)C2(C)C)cc1` [Example 90, (R)-3-((S)-2-(4,4-Dimethyl-3-(4-(3-(2-methylphenyl)ureido)benzyl)-2,5-dioxoimidazolidin-1-yl)-2-methyl-acetylamino)-3-methylpropionic Acid], 82 nM; under `Cc1ccccc1NC(=O)Nc1ccc(CN2C(=O)N(CC(=O)NC(C)(C)CC(=O)O)C(=O)C2(C)C)cc1` [Example 91, 3-(2-(4,4-Dimethyl-3-(4-(3-(2-methylphenyl)ureido)benzyl)-2,5-dioxoimidazolidin-1-yl)acetylamino)-3,3-dimethylpropionic Acid], 210 nM. In turn, `C[C@H](CC(=O)O)NC(=O)[C@H](CC1CC1)N1C(=O)N(Cc2ccc(NC(=O)Nc3ccccc3)cc2)C(C)(C)C1=O` [Example 92, (R)-3-((S)-2-(4,4-Dimethyl-3-(4-(3-phenylureido)benzyl)-2,5-dioxoimidazolidin-1-yl)-2-cyclopropylmethylacetylamino)-3-methylpropionic Acid] registered an IC50 of 40 nM.
